# Data taken from paper PMC5218480 (PLoS ONE, 2017).
# Test system: MV-4-11 cells
# Test: Gene expression microarray analysis (Affymetrix PrimeView) and GSEA
# Type: cell-based, human
# Design: RFU PODN (11730768_x_at) / Fold change /veh PODN (11730768_x_at) / RFU LINC00158 (11744669_a_at) / Fold change /veh LINC00158 (11744669_a_at) / RFU DUSP10 (11751237_a_at) / Fold change /veh DUSP10 (11751237_a_at) / RFU ID3 (11757404_x_at) / Fold change /veh ID3 (11757404_x_at) / RFU PLEKHG5 (11737974_s_at) / Fold change /veh PLEKHG5 (11737974_s_at) / RFU LRRC4B (11730491_at) / Fold change /veh LRRC4B (11730491_at) / RFU GIMAP4 (11747438_a_at) / Fold change /veh GIMAP4 (11747438_a_at) / RFU KRT8 (11758183_x_at) / Fold change /veh KRT8 (11758183_x_at) / RFU CNN1 (11734310_a_at) / Fold change /veh CNN1 (11734310_a_at) / RFU VPS37D (11726825_at) / Fold change /veh VPS37D (11726825_at) / RFU C10orf10 (11716522_x_at) / Fold change /veh C10orf10 (11716522_x_at) / RFU KIR2DL2 /// KIR2DL4 /// KIR2DL5A /// KIR2DL5B /// KIR2DS1 /// KIR2DS2 /// KIR2DS3 /// KIR2DS4 /// KIR3DL3 /// KIR3DL3 /// KIR3DS1 (11738374_at) / Fold change /veh KIR2DL2 /// KIR2DL4 /// KIR2DL5A /// KIR2DL5B /// KIR2DS1 /// KIR2DS2 /// KIR2DS3 /// KIR2DS4 /// KIR3DL3 /// KIR3DL3 /// KIR3DS1 (11738374_at) / RFU C1QL1 (11718748_at) / Fold change /veh C1QL1 (11718748_at) / RFU TMPRSS4 (11747572_a_at) / Fold change /veh TMPRSS4 (11747572_a_at) / RFU HAMP (11756126_x_at) / Fold change /veh HAMP (11756126_x_at) / RFU RNFT2 (11725882_a_at) / Fold change /veh RNFT2 (11725882_a_at) / RFU NR4A2 (11747474_a_at) / Fold change /veh NR4A2 (11747474_a_at) / RFU ABCC12 (11746883_a_at) / Fold change /veh ABCC12 (11746883_a_at) / RFU TMEM136 (11760407_x_at) / Fold change /veh TMEM136 (11760407_x_at) / RFU CLDN22 /// WWC2 (11732394_at) / Fold change /veh CLDN22 /// WWC2 (11732394_at) / RFU HLA-DPB1 (11760878_x_at) / Fold change /veh HLA-DPB1 (11760878_x_at) / RFU SPINT1 (11716480_a_at) / Fold change /veh SPINT1 (11716480_a_at) / RFU GAP43 (11754022_s_at) / Fold change /veh GAP43 (11754022_s_at) / RFU A4GNT (11735810_at) / Fold change /veh A4GNT (11735810_at) / RFU PRB3 (11715151_x_at) / Fold change /veh PRB3 (11715151_x_at) / RFU TUBB4B (11761932_at) / Fold change /veh TUBB4B (11761932_at) / RFU CAPN14 (11732068_a_at) / Fold change /veh CAPN14 (11732068_a_at) / RFU TMCC2 (11721928_a_at) / Fold change /veh TMCC2 (11721928_a_at) / RFU IRGQ (11745062_a_at) / Fold change /veh IRGQ (11745062_a_at) / RFU FAM174B (11720279_a_at) / Fold change /veh FAM174B (11720279_a_at) / RFU TMPRSS4 (11748680_a_at) / Fold change /veh TMPRSS4 (11748680_a_at) / RFU FAM212B (11763350_a_at) / Fold change /veh FAM212B (11763350_a_at) / RFU PLEKHG5 (11743358_a_at) / Fold change /veh PLEKHG5 (11743358_a_at) / RFU ZSCAN30 (11745921_a_at) / Fold change /veh ZSCAN30 (11745921_a_at) / RFU CMKLR1 (11741424_a_at) / Fold change /veh CMKLR1 (11741424_a_at) / RFU LOC101060620 /// MAPK8IP1 (11723275_at) / Fold change /veh LOC101060620 /// MAPK8IP1 (11723275_at) / RFU SPTSSB (11747773_x_at) / Fold change /veh SPTSSB (11747773_x_at) / RFU PRSS12 (11739890_at) / Fold change /veh PRSS12 (11739890_at) / RFU BIN1 (11741810_x_at) / Fold change /veh BIN1 (11741810_x_at) / RFU WNT11 (11732464_a_at) / Fold change /veh WNT11 (11732464_a_at) / RFU C10orf10 (11716521_a_at) / Fold change /veh C10orf10 (11716521_a_at) / RFU C5orf56 (11738089_at) / Fold change /veh C5orf56 (11738089_at) / RFU CYB561 (11721691_x_at) / Fold change /veh CYB561 (11721691_x_at) / RFU ANKRD19P (11752326_a_at) / Fold change /veh ANKRD19P (11752326_a_at) / RFU OR2T12 /// OR2T33 /// OR2T8 (11738714_s_at) / Fold change /veh OR2T12 /// OR2T33 /// OR2T8 (11738714_s_at) / RFU VCAN (11748164_a_at) / Fold change /veh VCAN (11748164_a_at) / RFU JSRP1 (11732532_at) / Fold change /veh JSRP1 (11732532_at) / RFU KRTAP10-11 (11738290_x_at) / Fold change /veh KRTAP10-11 (11738290_x_at) / RFU MYO3A (11730013_a_at) / Fold change /veh MYO3A (11730013_a_at) / RFU EBF3 (11725865_a_at) / Fold change /veh EBF3 (11725865_a_at) / RFU CAMK2N1 (11719241_x_at) / Fold change /veh CAMK2N1 (11719241_x_at) / RFU C5orf56 (11738088_a_at) / Fold change /veh C5orf56 (11738088_a_at) / RFU OLFML3 (11715873_a_at) / Fold change /veh OLFML3 (11715873_a_at) / RFU LOC100653217 /// NTM (11731650_a_at) / Fold change /veh LOC100653217 /// NTM (11731650_a_at) / RFU MAPK11 (11762145_a_at) / Fold change /veh MAPK11 (11762145_a_at) / RFU FIZ1 (11724087_x_at) / Fold change /veh FIZ1 (11724087_x_at) / RFU OASL (11726364_x_at) / Fold change /veh OASL (11726364_x_at) / RFU SOX15 (11748057_x_at) / Fold change /veh SOX15 (11748057_x_at) / RFU CD79A (11719716_a_at) / Fold change /veh CD79A (11719716_a_at) / RFU HIST1H1D (11736915_at) / Fold change /veh HIST1H1D (11736915_at) / RFU CASKIN2 (11723855_a_at) / Fold change /veh CASKIN2 (11723855_a_at) / RFU LOC730098 (11760151_x_at) / Fold change /veh LOC730098 (11760151_x_at) / RFU OR4N2 (11742367_at) / Fold change /veh OR4N2 (11742367_at) / RFU PRRT2 (11749266_a_at) / Fold change /veh PRRT2 (11749266_a_at) / RFU SNX32 (11753110_a_at) / Fold change /veh SNX32 (11753110_a_at) / RFU CDHR5 (11726645_a_at) / Fold change /veh CDHR5 (11726645_a_at) / RFU RCAN1 (11760418_a_at) / Fold change /veh RCAN1 (11760418_a_at) / RFU FAM167A (11723789_a_at) / Fold change /veh FAM167A (11723789_a_at) / RFU FAM26E (11764081_at) / Fold change /veh FAM26E (11764081_at) / RFU ISYNA1 (11749810_s_at) / Fold change /veh ISYNA1 (11749810_s_at) / RFU ACY1 (11761880_at) / Fold change /veh ACY1 (11761880_at) / RFU 11764098_at / Fold change /veh 11764098_at / RFU SAMD14 (11745864_x_at) / Fold change /veh SAMD14 (11745864_x_at) / RFU NPB (11741838_a_at) / Fold change /veh NPB (11741838_a_at) / RFU TMPRSS6 (11731388_a_at) / Fold change /veh TMPRSS6 (11731388_a_at) / RFU KRTAP10-2 (11738614_at) / Fold change /veh KRTAP10-2 (11738614_at) / RFU ARHGAP8 /// PRR5-ARHGAP8 (11727945_x_at) / Fold change /veh ARHGAP8 /// PRR5-ARHGAP8 (11727945_x_at) / RFU KRTAP5-7 /// NADSYN1 (11734609_at) / Fold change /veh KRTAP5-7 /// NADSYN1 (11734609_at) / RFU RASL12 (11751679_a_at) / Fold change /veh RASL12 (11751679_a_at) / RFU CDKN2B (11736163_a_at) / Fold change /veh CDKN2B (11736163_a_at) / RFU PRF1 (11729649_at) / Fold change /veh PRF1 (11729649_at) / RFU, ZNF638 /// ZNF638-IT1 / Fold change vs veh, ZNF638 /// ZNF638-IT1 / RFU, PANK3 / Fold change vs veh, PANK3 / RFU, SH3YL1 / Fold change vs veh, SH3YL1 / RFU, ZEB2 / Fold change vs veh, ZEB2 / RFU, NRIP1 / Fold change vs veh, NRIP1 / RFU, PTTG1IP / Fold change vs veh, PTTG1IP / RFU, CAPN2 / Fold change vs veh, CAPN2 / RFU, MED14 / Fold change vs veh, MED14 / RFU, SNORA58 / Fold change vs veh, SNORA58 / RFU, C1orf63 / Fold change vs veh, C1orf63 / RFU, LRRFIP1 / Fold change vs veh, LRRFIP1 / RFU, NDUFAF7 / Fold change vs veh, NDUFAF7 / RFU, SLC12A2 / Fold change vs veh, SLC12A2 / RFU, IBTK / Fold change vs veh, IBTK / RFU, ESF1 / Fold change vs veh, ESF1 / Fold change vs veh, TMEM50B / RFU, TAOK1 / Fold change vs veh, TAOK1 / RFU, ACBD3 / Fold change vs veh, ACBD3 / RFU, TMA16 / Fold change vs veh, TMA16 / RFU, RWDD3 / Fold change vs veh, RWDD3 / RFU, BCAT1 / Fold change vs veh, BCAT1 / RFU, EDEM3 / Fold change vs veh, EDEM3 / RFU, TMEM33 / Fold change vs veh, TMEM33 / RFU, WDR75 / Fold change vs veh, WDR75 / RFU, AHCTF1 / Fold change vs veh, AHCTF1 / RFU, TFRC / Fold change vs veh, TFRC / RFU, ZDHHC17 / Fold change vs veh, ZDHHC17 / RFU, NOM1 / Fold change vs veh, NOM1 / RFU, ARL8B / Fold change vs veh, ARL8B / RFU, ZBTB11 / Fold change vs veh, ZBTB11 / RFU, TAMM41 / Fold change vs veh, TAMM41 / RFU, KIAA1704 /// LOC100996395 / Fold change vs veh, KIAA1704 /// LOC100996395 / RFU, ING1 / Fold change vs veh, ING1 / RFU, TRMT61B / Fold change vs veh, TRMT61B / RFU, FUBP3 / Fold change vs veh, FUBP3 / RFU, TP53 / Fold change vs veh, TP53 / RFU, TNKS2 / Fold change vs veh, TNKS2 / RFU, ZFP14 / Fold change vs veh, ZFP14 / RFU, ACTR2 / Fold change vs veh, ACTR2 / RFU, PPP3R1 / Fold change vs veh, PPP3R1 / RFU, PIK3R1 / Fold change vs veh, PIK3R1 / RFU, HNRNPA1 / Fold change vs veh, HNRNPA1 / RFU, RNF170 / Fold change vs veh, RNF170 / RFU, ZNF28 / Fold change vs veh, ZNF28 / RFU, RNGTT / Fold change vs veh, RNGTT / RFU, OGT / Fold change vs veh, OGT / RFU, BRD1 / Fold change vs veh, BRD1 / RFU, MARS / Fold change vs veh, MARS / RFU, ZNF655 / Fold change vs veh, ZNF655 / RFU, FAHD1 / Fold change vs veh, FAHD1 / RFU, BDP1 / Fold change vs veh, BDP1 / RFU, LRRCC1 / Fold change vs veh, LRRCC1 / RFU, ARID1A / Fold change vs veh, ARID1A / RFU, ZNF146 / Fold change vs veh, ZNF146 / RFU, ZNF330 / Fold change vs veh, ZNF330 / RFU, GPN3 / Fold change vs veh, GPN3 / RFU, C9orf123 / Fold change vs veh, C9orf123 / RFU, N4BP2L2 / Fold change vs veh, N4BP2L2 / RFU, ARFIP1 / Fold change vs veh, ARFIP1 / RFU, FAM179B / Fold change vs veh, FAM179B / RFU, BCL10 / Fold change vs veh, BCL10 / RFU, UHRF1BP1L / Fold change vs veh, UHRF1BP1L / RFU, BET1 / Fold change vs veh, BET1 / RFU, CNOT2 / Fold change vs veh, CNOT2 / RFU, ZNF268 / Fold change vs veh, ZNF268 / Fold change vs veh, ZNF507 / RFU, DGCR2 / Fold change vs veh, DGCR2 / RFU, WDSUB1 / Fold change vs veh, WDSUB1 / Fold change vs veh, HSP90B1 /// MIR3652 / RFU, ADSS / Fold change vs veh, ADSS / RFU, GK / Fold change vs veh, GK / RFU, ZNF148 / Fold change vs veh, ZNF148 / RFU, TAF9 / Fold change vs veh, TAF9 / RFU, SLC1A5 / Fold change vs veh, SLC1A5 / RFU, SLMO2 / Fold change vs veh, SLMO2 / RFU, ABCC4 / Fold change vs veh, ABCC4 / RFU, LOC101060439 /// RAP1B / Fold change vs veh, LOC101060439 /// RAP1B / RFU, RFX7 / Fold change vs veh, RFX7 / RFU, GTPBP10 / Fold change vs veh, GTPBP10 / RFU, CNEP1R1 / Fold change vs veh, CNEP1R1 / RFU, BIVM-ERCC5 /// ERCC5 / Fold change vs veh, BIVM-ERCC5 /// ERCC5 / RFU, ILF3 / Fold change vs veh, ILF3 / RFU 11762660_at / Fold change /veh 11762660_at / RFU VCAN (11757783_s_at) / Fold change /veh VCAN (11757783_s_at) / RFU DDX43 (11728927_at) / Fold change /veh DDX43 (11728927_at) / RFU KRT8 (11758188_x_at) / Fold change /veh KRT8 (11758188_x_at) / RFU NKD1 (11759106_at) / Fold change /veh NKD1 (11759106_at) / RFU SRD5A1 (11742802_a_at) / Fold change /veh SRD5A1 (11742802_a_at) / RFU TPSAB1 /// TPSB2 (11721975_s_at) / Fold change /veh TPSAB1 /// TPSB2 (11721975_s_at) / RFU GSTM3 (11746129_a_at) / Fold change /veh GSTM3 (11746129_a_at) / RFU IL23R (11737362_x_at) / Fold change /veh IL23R (11737362_x_at) / RFU TMEM51 (11727254_a_at) / Fold change /veh TMEM51 (11727254_a_at) / RFU PIWIL2 (11732686_x_at) / Fold change /veh PIWIL2 (11732686_x_at) / RFU ORM1 (11744905_x_at) / Fold change /veh ORM1 (11744905_x_at) / RFU CCDC152 (11743942_at) / Fold change /veh CCDC152 (11743942_at) / RFU ECM1 (11717891_a_at) / Fold change /veh ECM1 (11717891_a_at) / RFU IL23R (11748794_a_at) / Fold change /veh IL23R (11748794_a_at) / RFU TNFAIP8L3 (11732012_x_at) / Fold change /veh TNFAIP8L3 (11732012_x_at) / RFU MBOAT4 (11741988_at) / Fold change /veh MBOAT4 (11741988_at) / RFU 11764193_at / Fold change /veh 11764193_at / RFU TMEM53 (11763286_at) / Fold change /veh TMEM53 (11763286_at) / RFU MAGEB2 (11727129_at) / Fold change /veh MAGEB2 (11727129_at) / RFU TMEM200A (11744735_a_at) / Fold change /veh TMEM200A (11744735_a_at) / RFU CCDC152 (11751479_a_at) / Fold change /veh CCDC152 (11751479_a_at) / RFU FAM211A (11726209_a_at) / Fold change /veh FAM211A (11726209_a_at) / RFU RGS16 (11746705_a_at) / Fold change /veh RGS16 (11746705_a_at) / RFU VCAN (11755009_s_at) / Fold change /veh VCAN (11755009_s_at) / RFU RHOB (11743442_s_at) / Fold change /veh RHOB (11743442_s_at) / RFU RGS16 (11720943_a_at) / Fold change /veh RGS16 (11720943_a_at) / RFU RGS16 (11720944_at) / Fold change /veh RGS16 (11720944_at) / RFU, VPS4B / Fold change vs veh, VPS4B / RFU, CREB1 / Fold change vs veh, CREB1 / RFU, DNAJC13 / Fold change vs veh, DNAJC13 / RFU, GNAQ / Fold change vs veh, GNAQ / RFU, CDK5R1 / Fold change vs veh, CDK5R1 / RFU, ZRANB3 / Fold change vs veh, ZRANB3 / RFU, CUL4A / Fold change vs veh, CUL4A / RFU, CCNY / Fold change vs veh, CCNY / RFU, UFL1 / Fold change vs veh, UFL1 / RFU, COG3 / Fold change vs veh, COG3 / RFU, DIAPH2 / Fold change vs veh, DIAPH2 / RFU, SKA2 / Fold change vs veh, SKA2 / RFU, AFF3 / Fold change vs veh, AFF3 / RFU, LMF1 / Fold change vs veh, LMF1 / RFU, IPO11 / Fold change vs veh, IPO11 / RFU, DFFB / Fold change vs veh, DFFB / RFU, FOXP1 / Fold change vs veh, FOXP1 / RFU, CARD8 / Fold change vs veh, CARD8 / RFU, STRN3 / Fold change vs veh, STRN3 / RFU, ADK / Fold change vs veh, ADK / RFU, RASSF2 / Fold change vs veh, RASSF2 / RFU, WIPF1 / Fold change vs veh, WIPF1 / RFU, LARP1B / Fold change vs veh, LARP1B / RFU, RASA1 / Fold change vs veh, RASA1 / RFU, RB1 / Fold change vs veh, RB1 / RFU, PPFIA1 / Fold change vs veh, PPFIA1 / RFU, MAT2A / Fold change vs veh, MAT2A / RFU, CCT5 / Fold change vs veh, CCT5 / RFU, WDR92 / Fold change vs veh, WDR92 / RFU, CUX1 / Fold change vs veh, CUX1 / RFU, TTC7A / Fold change vs veh, TTC7A / RFU, TMEM135 / Fold change vs veh, TMEM135 / RFU, DEPTOR / Fold change vs veh, DEPTOR / RFU, CPM / Fold change vs veh, CPM / RFU, DNAJB6 / Fold change vs veh, DNAJB6 / RFU, CACNA2D3 / Fold change vs veh, CACNA2D3 / RFU, DTX4 / Fold change vs veh, DTX4 / RFU, TFCP2 / Fold change vs veh, TFCP2 / RFU, GMCL1 /// GMCL1P1 / Fold change vs veh, GMCL1 /// GMCL1P1 / RFU, AEBP2 / Fold change vs veh, AEBP2 / RFU, SNHG1 /// SNORD22 /// SNORD25 /// SNORD26 /// SNORD27 /// SNORD28 /// SNORD29 /// SNORD31 / Fold change vs veh, SNHG1 /// SNORD22 /// SNORD25 /// SNORD26 /// SNORD27 /// SNORD28 /// SNORD29 /// SNORD31 / Fold change (Aza/veh), C12orf56 (ProbeSet 11735607_a_at) / Fold change (ACY-1035/veh), C12orf56 (ProbeSet 11735607_a_at) / Fold change (Aza/veh), FGFR1OP (ProbeSet 11751329_s_at) / Fold change (ACY-1035/veh), FGFR1OP (ProbeSet 11751329_s_at) / Fold change (Aza/veh), VPS36 (ProbeSet 11739960_a_at) / Fold change (ACY-1035/veh), VPS36 (ProbeSet 11739960_a_at) / RFU SYPL1 (11715823_x_at) / Fold change /veh SYPL1 (11715823_x_at) / RFU IGFBP7 (11715501_s_at) / Fold change /veh IGFBP7 (11715501_s_at) / RFU REEP3 (11722064_at) / Fold change /veh REEP3 (11722064_at) / RFU IGLL1 (11728026_x_at) / Fold change /veh IGLL1 (11728026_x_at): dose or concentration left out as unconfirmed
# Details: MV-4-11 cells, 48 hours
compound,measurement,value
Nc1ccc(-c2cccs2)cc1NC(=O)c1ccc2c(c1)cc(C1CC1)n2CCN1CCOCC1 [ACY-1035],RFU OLFML3 (11715873_a_at),13.14 RFU
